These results are taken from patent US20170226142A1 (Achillion Pharmaceuticals, Inc., priority 2014, published 2017).

Where two headings read alike, the source gives them in different places. Bounds are passed on as bounds.

For the test, the target named is T1, Human factor D (Homo sapiens, UniProt P00746).
T1 construct: purified from human serum; purchased Complement Technology, Inc; host or cells: human serum
In words: Human Factor D Assay (Factor D inhibition assay). The class given is biochemical. The protocol:
Routine changes in starting materials and reaction conditions, readily apparent to those of skill in the art, were used to make the particular compounds disclosed in Table 2.
Human factor D (purified from human serum, Complement Technology, Inc.) at 80 nM final concentration is incubated with test compound at various concentrations for 5 minutes at room temperature in 50 mM Tris, 1M NaCl, pH 7.5. A synthetic substrate Z-L-Lys-SBzl and DTNB (Ellman's reagent) are added to final concentrations of 100 µM each. The increase in color is recorded at OD405 nm in a microplate in kinetic mode over 30 minutes with 30 second time points in a […]. IC50 values are calculated by non-linear regression from the percentage of inhibition of complement factor D activity as a function of test compound concentration.

[1] abbreviates: Factor D 80 nM, substrate Z-L-Lys-SBzl, DTNB, pH 7.5, read-out: IC50.

T1 sequence (P00746 26-253): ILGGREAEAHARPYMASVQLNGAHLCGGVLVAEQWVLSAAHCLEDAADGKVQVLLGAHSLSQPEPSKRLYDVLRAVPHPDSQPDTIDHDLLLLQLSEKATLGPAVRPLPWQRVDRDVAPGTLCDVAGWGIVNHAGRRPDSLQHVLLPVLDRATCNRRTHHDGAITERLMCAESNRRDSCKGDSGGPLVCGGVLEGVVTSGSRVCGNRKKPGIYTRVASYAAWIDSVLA

On to `CC(=O)c1cn(CC(=O)N2C[C@H](F)C[C@H]2C(=O)NCc2cccc(Cl)c2F)c2ccc(NC(=O)OC3CC3)cc12` [Compound 186, cyclopropyl (3-acetyl-1-(2-((2S,4R)-2-((3-chloro-2-fluorobenzyl)carbamoyl)-4-fluoropyrrolidin-1-yl)-2-oxoethyl)-1H-indol-5-yl)carbamate], for which, under setting [1], the IC50 – broadly, the point on the concentration scale where inhibition reaches its midpoint – is < 1000 nM.
As for `NC(=O)c1nn(CC(=O)N2C[C@H](F)C[C@H]2C(=O)Nc2cccc(-c3ccccc3Cl)c2F)c2cc(C(=O)NS(=O)(=O)C3CC3)ccc12` [Compound 212], where the note is “pH 7.5, read-out: IC50”, the IC50 was < 1000 nM.
On to `CCOP(=O)(OCC)c1ccc2c(C(C)=O)cn(CC(=O)N3[C@@H]4CCC[C@@H]4C[C@H]3C(=O)NCc3cccc(Cl)c3F)c2c1` [Compound 76, diethyl 1-(2-((2S,3aR,6aR)-2-((3-chloro-2-fluorobenzyl)carbamoyl)-hexahydrocyclopenta[b]pyrrol-1(2H)-yl)-2-oxoethyl)-3-acetyl-1H-indol-6-ylphosphonate], for which the IC50 (read-out: IC50) is < 1000 nM.
In the case of `CC(=O)c1cn(CC(=O)N2C[C@H](F)C[C@H]2C(=O)Nc2cccc(Oc3ccccc3)c2)c2cc(OCP(=O)(O)O)ccc12` [Compound 232, (((3-acetyl-1-(2-((2S,4R)-4-fluoro-2-((3-phenoxyphenyl)carbamoyl)pyrrolidin-1-yl)-2-oxoethyl)-1H-indol-6-yl)oxy)methyl)phosphonic acid], the IC50 was 1000 to 10000 nM.
On to `C=CC1C[C@]1(NC(=O)[C@@H]1C[C@@H](F)CN1C(=O)Cn1cc(C(C)=O)c2ccc(O)cc21)C(=O)NS(=O)(=O)C1CC1` (stereo partly drawn) [Compound 88, (2S,4R)-1-(2-(3-acetyl-6-hydroxy-1H-indol-1-yl)acetyl)-N-((1R)-1-(cyclopropylsulfonylcarbamoyl)-2-vinylcyclopropyl)-4-fluoropyrrolidine-2-carboxamide], for which the IC50 under setting [1] is 1000 to 10000 nM.
`O=C(NCc1cccc(Cl)c1F)[C@@H]1C[C@@H](F)CN1C(=O)Cn1nc(P(=O)(O)O)c2ccncc21` [Compound 65]: the IC50 under setting [1] is > 10000 nM.
With `CC(=O)c1cn(CC(=O)N2CCOC[C@H]2C(=O)NCc2cccc(Cl)c2F)c2cc(C(=O)O)ccc12` [Compound 159, (S)-1-(2-(3-((3-chloro-2-fluorobenzyl)carbamoyl)morpholino)-2-oxoethyl)-3-acetyl-1H-indole-6-carboxylic acid], under setting [1], the IC50 is < 1000 nM.
On the same count and under the same terms, next, `CC(=O)c1nn(CC(=O)N2C[C@H](F)C[C@H]2C(=O)Nc2cccc(SC(F)(F)F)c2)c2cnccc12` [Compound 53, (2S,4R)-1-(2-(3-acetyl-1H-pyrazolo[3,4-c]pyridin-1-yl)acetyl)-4-fluoro-N-(3-((trifluoro-methyl)thio)phenyl)pyrrolidine-2-carboxamide]: < 1000 nM; `CC(=O)c1cn(CC(=O)N2C[C@H](F)C[C@H]2C(=O)NCc2cccc(Cl)c2F)c2ccc(C#Cc3cccc(OC(F)(F)F)c3F)cc12` [Compound 177, (2S,4R)-1-(2-(3-acetyl-5-((2-fluoro-3-(trifluoromethoxy)phenyl)ethynyl)-1H-indol-1-yl)acetyl)-N-(3-chloro-2-fluorobenzyl)-4-fluoropyrrolidine-2-carboxamide]: 1000 to 10000 nM.
